Biological target: recombinant human PAI-1 (Homo sapiens, UniProt P05121)
Assay: biochemical
Details: read-out: Inhibition Rate of PAI-1 Activity (%)
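Note: PAI-1 preincubated with compound, then two-chain tPA added, residual tPA activity read with fluorogenic Pyr-Gly-Arg-MCA substrate after 30 min at room temperature.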

Sequence of recombinant human PAI-1 (P05121 24-402): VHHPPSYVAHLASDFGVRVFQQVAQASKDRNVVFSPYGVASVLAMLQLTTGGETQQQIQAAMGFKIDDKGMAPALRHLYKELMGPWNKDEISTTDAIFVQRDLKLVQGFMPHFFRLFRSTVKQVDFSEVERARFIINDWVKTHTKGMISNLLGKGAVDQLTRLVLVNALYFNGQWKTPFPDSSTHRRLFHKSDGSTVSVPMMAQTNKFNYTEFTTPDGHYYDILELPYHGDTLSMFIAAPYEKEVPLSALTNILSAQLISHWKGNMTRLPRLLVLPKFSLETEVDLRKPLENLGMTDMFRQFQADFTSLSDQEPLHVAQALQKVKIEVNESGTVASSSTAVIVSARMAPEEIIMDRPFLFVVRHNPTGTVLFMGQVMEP

| Compound | inhibition at 5 µM [%] | inhibition at 10 µM [%] | inhibition at 25 µM [%] |
| --- | --- | --- | --- |
| CC(C)(C)c1ccc(N(C(=O)C(=O)O)c2ccc(Oc3ccc(OC(F)(F)F)cc3)cc2)cc1 [Compound 165] | 27 | 64 | 96 |
| CC(C)(C)c1ccc(CN(C(=O)C(=O)O)c2ccc(-c3ccc(OC(F)(F)F)cc3)c(C(F)(F)F)c2)cc1 [Compound 166] | 44 | 79 | 84 |
| CCCCc1ccc(CN(C(=O)C(=O)O)c2ccc(-c3ccc(OC(F)(F)F)cc3)cc2)cc1 [Compound 167] | 37 | 75 | 87 |
| CC(C)(C)c1ccc(CN(C(=O)C(=O)O)c2ccc(C(F)(F)F)cc2-c2ccc(OC(F)(F)F)cc2)cc1 [Compound 169] | 59 | 91 | 84 |
| CC(C)(C)c1ccc(N(C(=O)C(=O)O)c2cccc(Oc3ccc(OC(F)(F)F)cc3)c2)cc1 [Compound 170] | 38 | 73 | 94 |
| O=C(O)C(=O)N(Cc1c(Cl)cccc1Cl)c1ccc(-c2ccc(OC(F)(F)F)cc2)cc1 [Compound 171] | 22 | 44 | 81 |
| CC(C)(C)c1ccc(CN(C(=O)C(=O)O)c2c(Cl)cc(-c3ccc(OC(F)(F)F)cc3)cc2Cl)cc1 [Compound 173] | 63 | 95 | 90 |
| CC(C)(C)c1ccc(CN(C(=O)C(=O)O)c2cc(Oc3ccc(OC(F)(F)F)cc3)cc(C(F)(F)F)c2)cc1 [Compound 175] | 66 | 94 | 87 |
| Cc1c(-c2ccc(OC(F)(F)F)cc2)cccc1N(Cc1ccc(C(C)(C)C)cc1)C(=O)C(=O)O [Compound 177] | 43 | 83 | 91 |
| Cc1cc(-c2ccc(OC(F)(F)F)cc2)cc(N(Cc2ccc(C(C)(C)C)cc2)C(=O)C(=O)O)c1 [Compound 178] | 56 | 88 | 88 |
| O=C(O)C(=O)N(Cc1ccccc1)c1c(Cl)cc(-c2ccc(OC(F)(F)F)cc2)cc1Cl [Compound 180] | 19 | 36 | 71 |
| O=C(O)C(=O)N(Cc1ccc(O)cc1)c1ccc(-c2ccc(OC(F)(F)F)cc2)cc1 [Compound 181] | 10 | 11 | 31 |
| COc1ccc(-c2ccc(OC(F)(F)F)cc2)cc1N(Cc1ccc(C(C)(C)C)cc1)C(=O)C(=O)O [Compound 182] | 56 | 85 | 89 |
| O=C(O)C(=O)N(Cc1ccc(OC(F)(F)F)cc1)c1ccc(-c2ccccc2)cc1 [Compound 183] |  | 11 | 29 |
| Cc1cc(N(Cc2ccc(C(C)(C)C)cc2)C(=O)C(=O)O)ccc1-c1ccc(OC(F)(F)F)cc1 [Compound 184] | 59 | 86 | 85 |
| Cc1ccc(N(Cc2ccc(C(C)(C)C)cc2)C(=O)C(=O)O)cc1Oc1ccc(OC(F)(F)F)cc1 [Compound 187] | 75 | 92 | 88 |
| CC(C)(C)c1ccc(CN(C(=O)C(=O)O)c2ccc(Cl)cc2Oc2ccc(OC(F)(F)F)cc2)cc1 [Compound 191] | 74 | 92 | 87 |
| CCCCCOc1ccc(-c2ccc(OC(F)(F)F)cc2)cc1N(Cc1ccccc1)C(=O)C(=O)O [Compound 195] | 77 | 94 | 93 |

| Compound | inhibition at 5 µM [%] | inhibition at 10 µM [%] | inhibition at 25 µM [%] |
| --- | --- | --- | --- |
| CC(C)(C)c1ccc(CN(C(=O)C(=O)O)c2ccc(-c3ccc(OC(F)(F)F)cc3)c(CCC(=O)O)c2)cc1 [Compound 196] | 18 | 35 | 64 |
| CC(C)(C)c1ccc(CN(C(=O)C(=O)O)c2ccc(-c3cccc(OC(F)(F)F)c3)cc2)cc1 [Compound 200] | 64 | 89 | 92 |
| CC(C)(C)c1ccc(CN(C(=O)C(=O)O)c2ccc(-c3ccccc3OC(F)(F)F)cc2)cc1 [Compound 201] | 64 | 89 | 82 |
| CC(C)(C)c1ccc(-c2ccc(N(Cc3ccccc3OC(F)(F)F)C(=O)C(=O)O)cc2)cc1 [Compound 202] | 70 | 94 | 98 |
| CC(C)(C)c1ccc(-c2ccc(N(Cc3cccc(OC(F)(F)F)c3)C(=O)C(=O)O)cc2)cc1 [Compound 203] | 69 | 91 | 97 |
| CC(C)(C)c1ccc(-c2ccc(N(Cc3ccc(Cl)cc3)C(=O)C(=O)O)cc2)cc1 [Compound 204] | 58 | 85 | > 99 |
| CC(C)(C)c1ccc(-c2ccc(N(Cc3ccc(C(F)(F)F)cc3)C(=O)C(=O)O)cc2)cc1 [Compound 205] | 50 | 80 | 98 |
| CCC(CC)Oc1ccc(N(Cc2ccc(C(C)(C)C)cc2)C(=O)C(=O)O)c(-c2ccc(OC(F)(F)F)cc2)c1 [Compound 207] | 79 | 90 |  |
| CC(C)Oc1ccc(N(Cc2ccc(C(C)(C)C)cc2)C(=O)C(=O)O)c(-c2ccc(OC(F)(F)F)cc2)c1 [Compound 209] | 81 | 98 | 94 |
| CCCOc1ccc(N(Cc2ccccc2)C(=O)C(=O)O)cc1-c1ccc(OC(F)(F)F)cc1 [Compound 210] | 39 | 70 | 94 |
| CC(C)(C)c1ccc(CN(C(=O)C(=O)O)c2ccc(N3CCOCC3)c(-c3ccc(OC(F)(F)F)cc3)c2)cc1 [Compound 216] | 75 | 88 | 84 |
| CC(C)(C)c1ccc(CN(C(=O)C(=O)O)c2ccc(N3CCCCC3)c(-c3ccc(OC(F)(F)F)cc3)c2)cc1 [Compound 217] | 86 | 84 |  |
| CC(C)(C)Oc1ccc(N(Cc2ccc(C(C)(C)C)cc2)C(=O)C(=O)O)cc1-c1ccc(OC(F)(F)F)cc1 [Compound 218] | 83 | 78 |  |
| CC(C)(C)c1ccc(CN(C(=O)C(=O)O)c2ccc(N3CCCCC3=O)c(-c3ccc(OC(F)(F)F)cc3)c2)cc1 [Compound 219] | 33 | 58 | 86 |
| CC(c1ccc(C(C)(C)C)cc1)N(C(=O)C(=O)O)c1ccc(-c2ccc(OC(F)(F)F)cc2)cc1 (stereo not shown) [Compound 220] | 51 | 86 | 89 |
| O=C(O)C(=O)N(CCc1ccccc1)c1ccc(-c2ccc(OC(F)(F)F)cc2)cc1 [Compound 223] | 13 | 27 |  |
| O=C(O)C(=O)N(CCCc1ccccc1)c1ccc(-c2ccc(OC(F)(F)F)cc2)cc1 [Compound 224] | 29 | 53 | 86 |
